Measurements taken from patent publication US20260285855A1, “HETEROARYL DERIVATIVES AS DDRS INHIBITORS” (CHIESI FARMACEUTICI S.P.A., priority 2023, published 2026).

What was measured:
DDR2 = biological target: T1, DDR2 (Homo sapiens, UniProt Q16832); assay: LanthaScreen Europium Kinase Binding assay, DDR2; conditions: 5 nM DDR2, 10 nM Kinase Tracer 178, 1 h at rt; Ki from IC50 by Cheng-Prusoff; read-out: Ki DDR2
T1 construct: purchased Life Technologies
T1 sequence (Q16832 22-855): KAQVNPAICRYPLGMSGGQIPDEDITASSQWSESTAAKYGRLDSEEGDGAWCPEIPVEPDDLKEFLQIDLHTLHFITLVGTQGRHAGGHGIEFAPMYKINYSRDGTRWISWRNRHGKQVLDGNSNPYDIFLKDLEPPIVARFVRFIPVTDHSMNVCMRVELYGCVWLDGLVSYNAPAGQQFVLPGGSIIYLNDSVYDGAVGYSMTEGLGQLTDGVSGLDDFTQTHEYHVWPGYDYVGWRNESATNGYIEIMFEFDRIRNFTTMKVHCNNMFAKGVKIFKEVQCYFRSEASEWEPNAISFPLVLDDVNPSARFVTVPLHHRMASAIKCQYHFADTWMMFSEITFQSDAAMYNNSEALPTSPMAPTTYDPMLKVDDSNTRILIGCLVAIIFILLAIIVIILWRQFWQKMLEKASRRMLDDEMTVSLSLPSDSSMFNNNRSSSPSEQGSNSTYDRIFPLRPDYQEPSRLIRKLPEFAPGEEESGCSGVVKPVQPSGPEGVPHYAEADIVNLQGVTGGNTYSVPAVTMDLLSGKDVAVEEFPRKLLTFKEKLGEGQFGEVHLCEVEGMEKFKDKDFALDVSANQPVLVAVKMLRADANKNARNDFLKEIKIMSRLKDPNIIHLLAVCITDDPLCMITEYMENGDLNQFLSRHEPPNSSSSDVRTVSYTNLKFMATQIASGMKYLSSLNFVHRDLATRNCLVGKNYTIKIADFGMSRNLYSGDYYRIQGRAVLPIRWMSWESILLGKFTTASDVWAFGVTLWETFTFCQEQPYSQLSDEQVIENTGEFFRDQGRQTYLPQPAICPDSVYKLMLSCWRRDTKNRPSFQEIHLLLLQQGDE
Experimental: (§1) DDR1 and DDR2 binding assays were performed using Life Technologies LanthaScreen™ Europium Kinase Binding assay. […] IC50 values were determined in GraphPad Prism 7.0 software, using 4 parameter model: log (inhibitor) vs. response. IC50 values were converted in Ki using the Cheng-Prusoff equation (Ki-IC50/(1+ [Tracer]/Kd).

DDR1 = biological target: T2, DDR1 (Homo sapiens, UniProt Q08345); assay: LanthaScreen Europium Kinase Binding assay, DDR1; conditions: 5 nM DDR1, 20 nM Kinase Tracer 178, 1 h at rt; Ki from IC50 by Cheng-Prusoff; read-out: Ki DDR1
T2 construct: purchased Carna Biosciences
T2 sequence (Q08345 19-913): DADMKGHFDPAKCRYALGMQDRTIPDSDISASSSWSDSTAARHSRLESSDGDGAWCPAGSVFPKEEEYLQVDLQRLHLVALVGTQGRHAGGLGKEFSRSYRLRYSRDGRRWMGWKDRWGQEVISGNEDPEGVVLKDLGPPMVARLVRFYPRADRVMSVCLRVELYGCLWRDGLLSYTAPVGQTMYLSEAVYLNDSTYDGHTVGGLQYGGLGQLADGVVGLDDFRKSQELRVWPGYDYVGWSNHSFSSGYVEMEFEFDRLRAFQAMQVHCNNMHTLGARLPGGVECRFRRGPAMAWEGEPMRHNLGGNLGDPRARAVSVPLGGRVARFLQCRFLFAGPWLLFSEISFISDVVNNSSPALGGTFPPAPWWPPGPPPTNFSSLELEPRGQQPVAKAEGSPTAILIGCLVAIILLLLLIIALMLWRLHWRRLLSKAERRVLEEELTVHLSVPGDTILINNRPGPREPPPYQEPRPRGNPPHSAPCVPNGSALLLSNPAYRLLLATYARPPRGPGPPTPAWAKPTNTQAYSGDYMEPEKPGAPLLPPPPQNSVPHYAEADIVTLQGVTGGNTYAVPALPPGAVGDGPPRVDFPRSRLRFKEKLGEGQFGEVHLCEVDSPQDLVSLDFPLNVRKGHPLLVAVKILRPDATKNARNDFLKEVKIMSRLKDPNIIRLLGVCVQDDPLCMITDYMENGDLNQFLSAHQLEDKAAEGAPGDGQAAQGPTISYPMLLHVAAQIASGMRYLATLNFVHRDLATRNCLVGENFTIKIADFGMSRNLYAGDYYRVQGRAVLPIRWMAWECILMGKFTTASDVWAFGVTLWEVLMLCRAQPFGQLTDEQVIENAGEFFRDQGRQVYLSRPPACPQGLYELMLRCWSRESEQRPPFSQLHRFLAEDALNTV
Experimental: as §1

Compound	Ki (DDR2) [nM]	Ki (DDR1) [nM]
CN(C(=O)Nc1cc(I)ccn1)C1CC2(C1)CN(C(=O)c1cnn3ccn(C)c13)C2 [Example 254, 3-(4-iodopyridin-2-yl)-1-methyl-1-(2-(1-methyl-1H-imidazo[1,2-b]pyrazole-7-carbonyl)-2-azaspiro[3.3]heptan-6-yl)urea]	5 to 25	< 5
Cn1ccn2ncc(C(=O)N3CC4(CC(NC(=O)Nc5cc(C(F)(F)F)ccn5)C4)C3)c12 [Example 75, 1-(2-(1-methyl-1H-imidazo[1,2-b]pyrazole-7-carbonyl)-2-azaspiro[3.3]heptan-6-yl)-3-(4-(trifluoromethyl)pyridin-2-yl)urea]	5 to 25	< 5
COc1cccc(NC(=O)NC2CC3(C2)CN(C(=O)c2cnn4ccsc24)C3)c1 [Example 33, 1-(3-methoxyphenyl)-3-(2-(pyrazolo[5,1-b]thiazole-7-carbonyl)-2-azaspiro[3.3]heptan-6-yl)urea]	> 100	5 to 25
Cn1ccn2ncc(C(=O)N3CC4(CC(CC(=O)Nc5cccc(C(F)(F)F)c5)C4)C3)c12 [Example 141, 2-(2-(1-methyl-1H-imidazo[1,2-b]pyrazole-7-carbonyl)-2-azaspiro[3.3]heptan-6-yl)-N-(3-(trifluoromethyl)phenyl)acetamide]	< 5	< 5
CN(C(=O)Nc1cc(OC(F)(F)F)ccn1)C1CC2(C1)CN(C(=O)c1cnn3ccncc13)C2 [Example 190, 1-methyl-1-(2-(pyrazolo[1,5-a]pyrazine-3-carbonyl)-2-azaspiro[3.3]heptan-6-yl)-3-(4-(trifluoromethoxy)pyridin-2-yl)urea]	25 to 100	5 to 25
O=C(Nc1cccc(C(F)(F)F)c1)NC1CC2(C1)CN(Cc1cnc3cnccn13)C2 [Example 11, 1-(2-(imidazo[1,2-a]pyrazin-3-ylmethyl)-2-azaspiro[3.3]heptan-6-yl)-3-(3-(trifluoromethyl)phenyl)urea]	5 to 25	5 to 25
O=C(Nc1cccc(C(F)(F)F)c1)NC1CC2(C1)CN(C(=O)c1cnn3cc(CNC4COC4)ccc13)C2 [Example 116, 1-(2-(6-((oxetan-3-ylamino)methyl)pyrazolo[1,5-a]pyridine-3-carbonyl)-2-azaspiro[3.3]heptan-6-yl)-3-(3-(trifluoromethyl)phenyl)urea]	5 to 25	< 5
Cn1ccn2ncc(C(=O)N3CC4(CC(NC(=O)Nc5cc(C(F)(F)F)ccc5Cl)C4)C3)c12 [Example 45, 1-(2-chloro-5-(trifluoromethyl)phenyl)-3-(2-(1-methyl-1H-imidazo[1,2-b]pyrazole-7-carbonyl)-2-azaspiro[3.3]heptan-6-yl)urea]	< 5	< 5
CN(C(=O)Nc1cncc(C(F)(F)F)c1)C1CC2(C1)CN(C(=O)c1cnn3ccc(N)cc13)C2 [Example 244, 1-(2-(5-aminopyrazolo[1,5-a]pyridine-3-carbonyl)-2-azaspiro[3.3]heptan-6-yl)-1-methyl-3-(5-(trifluoromethyl)pyridin-3-yl)urea]	5 to 25	< 5
CN(C(=O)Nc1cc(OC(F)(F)F)ccn1)C1CC2(C1)CN(C(=O)c1cnn3cc(-c4cnn(C)c4)ccc13)C2 [Example 242, 1-(2-(6-(1,2-dimethyl-1H-214-pyrazol-4-yl)pyrazolo[1,5-a]pyridine-3-carbonyl)-2-azaspiro[3.3]heptan-6-yl)-1-methyl-3-(4-(trifluoromethoxy)pyridin-2-yl)urea]	5 to 25	< 5
Cc1ccc(-n2nc(C(C)(C)C)cc2NC(=O)NC2CC3(C2)CN(C(=O)c2cnn4ccsc24)C3)cc1 [Example 80, 1-(3-(tert-butyl)-1-(p-tolyl)-1H-pyrazol-5-yl)-3-(2-(pyrazolo[5,1-b]thiazole-7-carbonyl)-2-azaspiro[3.3]heptan-6-yl)urea]	5 to 25	< 5
Cc1ncc(C(F)(F)F)cc1NC(=O)NC1CC2(C1)CN(C(=O)c1cnn3ccsc13)C2 [Example 165, 1-(2-methyl-5-(trifluoromethyl)pyridin-3-yl)-3-(2-(pyrazolo[5,1-b]thiazole-7-carbonyl)-2-azaspiro[3.3]heptan-6-yl)urea]	5 to 25	< 5
COCCn1ccn2ncc(C(=O)N3CC4(CC(N(C)C(=O)Nc5cccc(C(F)(F)F)c5)C4)C3)c12 [Example 203, 1-(2-(1-(2-methoxyethyl)-1H-imidazo[1,2-b]pyrazole-7-carbonyl)-2-azaspiro[3.3]heptan-6-yl)-1-methyl-3-(3-(trifluoromethyl)phenyl)urea]	5 to 25	< 5
Cn1ccn2ncc(C(=O)N3CC4(CC(NC(=O)Nc5cc(OC(F)(F)F)ccc5F)C4)C3)c12 [Example 72, 1-(2-fluoro-5-(trifluoromethoxy)phenyl)-3-(2-(1-methyl-1H-imidazo[1,2-b]pyrazole-7-carbonyl)-2-azaspiro[3.3]heptan-6-yl)urea]	5 to 25	< 5

Second part, the compound after the results:

Ki (DDR2) [nM]	Ki (DDR1) [nM]	Compound
5 to 25	< 5	CC1(NC(=O)Nc2cccc(C(F)(F)F)c2)CC2(CN(C(=O)c3ncnc4ccsc34)C2)C1 [Example 191]
< 5	< 5	O=C(Nc1cccc(C(F)(F)F)c1)OC1CC2(C1)CN(C(=O)c1cnn3ccsc13)C2 [Example 147, 2-(pyrazolo[5,1-b]thiazole-7-carbonyl)-2-azaspiro[3.3]heptan-6-yl(3-(trifluoromethyl)phenyl)carbamate]
5 to 25	< 5	Cc1c(-c2ccc3c(C(=O)N4CC5(CC(N(C)C(=O)Nc6cncc(C(F)(F)F)c6)C5)C4)cnn3c2)cnn1C [Example 261, 1-(2-(6-(1,5-dimethyl-1H-pyrazol-4-yl)pyrazolo[1,5-a]pyridine-3-carbonyl)-2-azaspiro[3.3]heptan-6-yl)-1-methyl-3-(5-(trifluoromethyl)pyridin-3-yl)urea]
< 5	< 5	Cn1ccn2ncc(C(=O)N3CC4(CC(NC(=O)Nc5cc(F)cc(C(F)(F)F)c5)C4)C3)c12 [Example 106, 1-(3-fluoro-5-(trifluoromethyl)phenyl)-3-(2-(1-methyl-1H-imidazo[1,2-b]pyrazole-7-carbonyl)-2-azaspiro[3.3]heptan-6-yl)urea]
< 5	< 5	[2H]C([2H])([2H])n1ccn2ncc(C(=O)N3CC4(CC(CC(=O)Nc5cc(OC(F)(F)F)ccn5)C4)C3)c12 [Example 301, 2-(2-(1-(methyl-d3)-1H-imidazo[1,2-b]pyrazole-7-carbonyl)-2-azaspiro[3.3]heptan-6-yl)-N-(4-(trifluoromethoxy)pyridin-2-yl)acetamide]
< 5	< 5	O=C(Nc1cccc(C(F)(F)F)c1)NC1CC2(C1)CN(c1nccn3cncc13)C2 [Example 149, 1-(2-(imidazo[1,5-a]pyrazin-8-yl)-2-azaspiro[3.3]heptan-6-yl)-3-(3-(trifluoromethyl)phenyl)urea]
5 to 25	< 5	COc1cc(-c2ccc3c(C(=O)N4CC5(CC(N(C)C(=O)Nc6cncc(C(F)(F)F)c6)C5)C4)cnn3c2)ccn1 [Example 236, 1-(2-(6-(2-methoxypyridin-4-yl)pyrazolo[1,5-a]pyridine-3-carbonyl)-2-azaspiro[3.3]heptan-6-yl)-1-methyl-3-(5-(trifluoromethyl)pyridin-3-yl)urea]
